Results: patent publication US20070128217A1 (priority 2003, published 2007)

Assays:
[1] = tested on: control sera (pooled serum of ten healthy LUMC hospital workers; commercial negative donor pooled serum from the Dutch bloodbank); format: binding, human; set-up: Binding of Control serum LUMC to linear peptides / Binding of Control serum Blood-bank to linear peptides / Binding of Control serum LUMC to looped peptides / Binding of Control Serum Blood-Bank to Looped peptides / Binding of Control serum LUMC to linear peptides of the protein M of SARS-CoV Urbani / Binding of Control serum Blood-bank to linear peptides of the protein M of SARS-CoV Urbani / Binding of Control serum LUMC to looped peptides of the protein M of SARS-CoV Urbani / Binding of Control Serum Blood-Bank to Looped peptides of the protein M of SARS-CoV Urbani: unit not given here
[2] = tested on: antibodies in sera from SARS patients (sera 1a, 1b, 2, 6, 37, 62, London, SARS-yellow, SARS-green); format: binding, human; set-up: Binding of serum 6 to linear peptides of protein X1 of SARS-CoV Urbani / Binding of serum 37 to linear peptides of protein X1 of SARS-CoV Urbani / Binding of serum 6 to looped/cyclic peptide (PEPSCAN-ELISA) / Binding of serum 37 to looped/cyclic peptide (PEPSCAN-ELISA) / Binding of serum 37 to looped/cyclic peptides of protein X1 of SARS-CoV Urbani / Binding of serum 6 to linear peptides of protein X2 / Binding of serum 37 to linear peptides of protein X2 / Binding of serum 37 to looped/cyclic peptides of protein X2 of SARS-CoV Urbani / Binding of serum 6 to linear peptides of protein M of SARS-CoV Urbani / Binding of serum 37 to linear peptides of protein M of SARS-CoV Urbani / Binding of serum 6 to looped/cyclic peptides of protein M of SARS-CoV Urbani / Binding of serum 37 to looped/cyclic peptides of protein M of SARS-CoV Urbani / Binding of serum 6 to linear peptides of protein X3 of SARS-CoV Urbani / Binding of serum 37 to linear peptides of protein X3 of SARS-CoV Urbani / Binding of serum 37 to looped/cyclic peptides of protein X3 of SARS-CoV Urbani / Binding of serum 6 to linear peptides of protein X4 of SARS-CoV Urbani / Binding of serum 37 to linear peptides of protein X4 of SARS-CoV Urbani / Binding of serum 37 to looped/cyclic peptides of protein X4 of SARS-CoV Urbani / Binding of serum 6 to linear peptides of protein X5 of SARS-CoV Urbani / Binding of serum 37 to linear peptides of protein X5 of SARS-CoV Urbani / Binding of serum 37 to looped/cyclic peptides of protein X5 of SARS-CoV Urbani / Binding of serum 6 to linear peptides of protein N of SARS-CoV Urbani / Binding of serum 37 to linear peptides of protein N of SARS-CoV Urbani / Binding of serum 6 to linear peptide (PEPSCAN-ELISA) / Binding of serum 1a to looped/cyclic peptides of protein N of SARS-CoV Urbani / Binding of serum 1b to looped/cyclic peptides of protein N of SARS-CoV Urbani / Binding of serum 2 to looped/cyclic peptides of protein N of SARS-CoV Urbani / Binding of serum 6 to looped/cyclic peptides of protein N of SARS-CoV Urbani / Binding of serum 37 to looped/cyclic peptides of protein N of SARS-CoV Urbani / Binding of serum 62 to looped/cyclic peptides of protein N of SARS-CoV Urbani / Binding of serum London to looped/cyclic peptides of protein N of SARS-CoV Urbani / Binding of serum SARS-green to looped/cyclic peptides of protein N of SARS-CoV Urbani: unit not given here
[3] = tested on: recombinant human anti-SARS-CoV antibody 03-018; format: binding; set-up: Binding of antibody 03-018 to linear peptides of the N protein of SARS-CoV Urbani / Binding of antibody 03-018 to looped/cyclic peptides of the N protein of SARS-CoV Urbani: unit not given here
[4] = tested on: rabbit serum obtained by immunizing a rabbit with the SARS-CoV strain Frankfurt 1; format: binding; set-up: Binding of a rabbit serum to linear peptides / Binding of a rabbit serum to looped peptides / Rabbit serum linear peptides / Rabbit serum looped peptides / Binding of a rabbit serum to linear peptides of protein N of SARS-CoV Urbani (Rabbit serum linear peptides) / Binding of a rabbit serum to looped/cyclic peptides of protein N of SARS-CoV Urbani (Rabbit serum looped peptides): unit not given here

Sequence | Binding of Control Serum Blood-Bank to Looped peptides [1] | Binding of Control serum Blood-bank to linear peptides [1] | Binding of Control serum LUMC to linear peptides [1] | Binding of Control serum LUMC to looped peptides [1] | Binding of serum 1a to linear peptide (PEPSCAN-ELISA) [2] | Binding of serum 1a to looped/cyclic peptides of protein N of SARS-CoV Urbani [2] | Binding of serum 1b to linear peptide (PEPSCAN-ELISA) [2] | Binding of serum 1b to looped/cyclic peptides of protein N of SARS-CoV Urbani [2] | Binding of serum 2 to linear peptide (PEPSCAN-ELISA) [2] | Binding of serum 2 to looped/cyclic peptides of protein N of SARS-CoV Urbani [2] | Binding of serum 6 to looped/cyclic peptides of protein N of SARS-CoV Urbani [2] | Binding of serum 37 to looped/cyclic peptides of protein N of SARS-CoV Urbani [2] | Binding of serum 62 to looped/cyclic peptides of protein N of SARS-CoV Urbani [2] | Binding of serum London to looped/cyclic peptides of protein N of SARS-CoV Urbani [2] | Binding of serum SARS-green to looped/cyclic peptides of protein N of SARS-CoV Urbani [2] | Binding of serum SARS-yellow to looped/cyclic peptides of protein N of SARS-CoV Urbani [2] | Binding of antibody 03-018 to linear peptides of the N protein of SARS-CoV Urbani [3] | Binding of antibody 03-018 to looped/cyclic peptides of the N protein of SARS-CoV Urbani [3] | Binding of a rabbit serum to linear peptides of protein N of SARS-CoV Urbani (Rabbit serum linear peptides) [4] | Binding of a rabbit serum to looped/cyclic peptides of protein N of SARS-CoV Urbani (Rabbit serum looped peptides) [4] | other results
KQYNVTQAFGRRGPE | 0.5 | 0.6 | 0.7 | 0.5 | 0.3 | 0.0 | 0.1 | 0.0 | 0.1 | 0.1 | 0.2 | 0.0 | 0.0 | 0.2 | 0.4 | 0.0 | 0.1 | 0.1 | – | – | Binding of serum 6 to linear peptide (PEPSCAN-ELISA) [2]: 0.2; Binding of serum 37 to linear peptide (PEPSCAN-ELISA) [2]: 0.6; Binding of serum 62 to linear peptide (PEPSCAN-ELISA) [2]: 0.7; Binding of serum London to linear peptide (PEPSCAN-ELISA) [2]: 0.5; Binding of serum SARS-green to linear peptide (PEPSCAN-ELISA) [2]: 0.3; Binding of serum SARS-yellow to linear peptide (PEPSCAN-ELISA) [2]: 0.6; Recognition of the peptide by the rabbit serum [4]: recognized
KSAAEASKKPRQKRT | 0.4 | 0.7 | 0.7 | 0.4 | – | 0.2 | – | 0.1 | – | 0.2 | 0.1 | 0.4 | 0.2 | 0.3 | 0.1 | 0.1 | 0.1 | 0.1 | 0.1 | 0.2 | Recognition of the peptide by sera of SARS-CoV infected individuals, and form (linear, looped/cyclic) in which it is recognized [2]: recognized in linear form
KTFPPTEPKKDKKKK | – | – | – | – | – | 0.2 | – | 0.1 | – | 0.2 | 0.0 | 0.4 | 0.2 | 0.2 | 0.0 | 0.2 | 0.1 | 0.2 | 0.1 | 0.1 | Control Serum Blood-Bank Looped peptides [1]: 0.3; Control serum Blood-bank linear peptides [1]: 0.6; Control serum LUMC linear peptides [1]: 0.7; Control serum LUMC looped peptides [1]: 0.3; Binding of serum 1a to linear peptides of protein N of SARS-CoV Urbani [2]: 0.2; Binding of serum 1b to linear peptides of protein N of SARS-CoV Urbani [2]: 0.1; Binding of serum 2 to linear peptides of protein N of SARS-CoV Urbani [2]: 0.4; Binding of serum 6 to linear peptides of protein N of SARS-CoV Urbani [2]: 0.2; Binding of serum 37 to linear peptides of protein N of SARS-CoV Urbani [2]: 0.8; Binding of serum 62 to linear peptides of protein N of SARS-CoV Urbani [2]: 0.6; Binding of serum London to linear peptides of protein N of SARS-CoV Urbani [2]: 0.4; Binding of serum SARS-green to linear peptides of protein N of SARS-CoV Urbani [2]: 0.1; Binding of serum SARS-yellow to linear peptides of protein N of SARS-CoV Urbani [2]: 0.8
LDRLNQLESKVSGKG | 0.5 | 1.0 | 0.8 | 0.5 | 0.3 | 0.4 | 0.2 | 0.3 | 0.3 | 0.4 | 0.3 | 0.4 | 0.4 | 0.4 | 0.2 | 0.3 | 0.1 | 0.2 | 0.0 | 0.4 | Binding of serum 6 to linear peptide (PEPSCAN-ELISA) [2]: 0.3; Binding of serum 37 to linear peptide (PEPSCAN-ELISA) [2]: 0.5; Binding of serum 62 to linear peptide (PEPSCAN-ELISA) [2]: 0.6; Binding of serum London to linear peptide (PEPSCAN-ELISA) [2]: 0.5; Binding of serum SARS-green to linear peptide (PEPSCAN-ELISA) [2]: 0.8; Binding of serum SARS-yellow to linear peptide (PEPSCAN-ELISA) [2]: 0.7
